Laboratory results as given in patent publication US20200131144A1, “AMINE OR (THIO)AMIDE CONTAINING LXR MODULATORS” (Phenex-FXR GmbH, priority 2017, published 2020).

Assays:
[1] = target: T1, LXRα ligand-binding domain (LBD) (Homo sapiens, UniProt Q13133); assay: LXR Gal4 reporter transient transfection assay, mammalian two-hybrid, LBD-M2H Gal4α; format: cell-based; details: HEK293 cells; inverse agonist unless *
T1 construct: expressed in transfected cells; host or cells: HEK293
T1 sequence (Q13133 155-447): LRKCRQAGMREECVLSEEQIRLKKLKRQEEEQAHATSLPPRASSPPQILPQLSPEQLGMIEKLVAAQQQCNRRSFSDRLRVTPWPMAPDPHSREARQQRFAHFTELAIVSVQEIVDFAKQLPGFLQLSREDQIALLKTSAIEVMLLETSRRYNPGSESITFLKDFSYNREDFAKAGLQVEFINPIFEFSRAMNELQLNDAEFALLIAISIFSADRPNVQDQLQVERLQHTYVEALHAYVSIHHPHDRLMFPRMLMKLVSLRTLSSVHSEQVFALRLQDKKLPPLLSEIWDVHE
In short: (§1)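 HEK293 cells transiently cotransfected with NFkB-AD fusions of full-length or LBD LXRα/β, GAL4-DBD fusions of SRC1 coactivator or NCoR corepressor domains, GAL4-driven firefly luciferase and Renilla control. Compound added 4 h post-transfection (≤0.2% DMSO), 16 h incubation; firefly and Renilla luminescence read sequentially.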

[2] = target: T2, LXRβ ligand-binding domain (LBD) (Homo sapiens, UniProt P55055, INS174Q); assay: LXR Gal4 reporter transient transfection assay, mammalian two-hybrid, LBD-M2H Gal4β; format: cell-based; details: HEK293 cells; inverse agonist unless *
T2 construct: or LXR (amino acids 156-461); expressed in transfected cells; host or cells: HEK293
T2 sequence (P55055 with tags, fused parts or gaps INS174Q limits assumed): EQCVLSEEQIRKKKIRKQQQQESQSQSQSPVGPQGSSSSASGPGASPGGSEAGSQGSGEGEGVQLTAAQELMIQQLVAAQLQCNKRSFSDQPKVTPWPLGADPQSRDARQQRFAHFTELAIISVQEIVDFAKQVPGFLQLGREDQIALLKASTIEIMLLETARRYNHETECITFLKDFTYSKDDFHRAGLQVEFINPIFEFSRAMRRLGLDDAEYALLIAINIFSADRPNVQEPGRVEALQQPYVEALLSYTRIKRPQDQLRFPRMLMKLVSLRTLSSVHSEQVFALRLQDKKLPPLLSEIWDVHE
In short: as §1

Row | Compound | EC50 [1] [µM] | EC50 [2] [µM]
1 | Cc1ccc2ccccc2c1C(=O)N(Cc1ccc(-c2cccc(S(=O)(=O)CC(=O)O)c2)cc1)Cc1ccc(C(F)(F)F)o1 [Example 9] | 0.1 to 1 | 0.1 to 1
2 | Cc1ccc2ccccc2c1CN(Cc1ccc(-c2cccc(C(C)(C)C(=O)O)c2)cc1)Cc1ccc(C(F)(F)F)o1 [Example 24, 2-Methyl-2-(4′-((((2-methylnaphthalen-1-yl)methyl)((5-(trifluoromethyl)furan-2-yl)methyl)amino)methyl)-[1,1′-biphenyl]-3-yl)propanoic acid] | < 0.1 | < 0.1
3 | Cc1ccc2ccccc2c1C(=O)N(Cc1ccc(-c2cc(F)c(CO)c(S(=O)(=O)CC(=O)O)c2)cc1)Cc1ccc(C(F)(F)F)o1 [22/8] | < 0.1 | < 0.1
4 | Cc1cc(C)c(C(=O)N(Cc2ccc(-c3cccc(C(C)(C)C(=O)O)c3)cc2)Cc2ccc(C(F)(F)F)o2)c(C)c1 [10/1] | 0.1 to 1 | < 0.1
